The test deals with T1, CCR2 (Homo sapiens, UniProt P41597).
T1 construct: expressed in transfected cells; host or cells: CHOK1
In words: Antibody Dependent Cellular Cytotoxicity (ADCC) reporter assay, CCR2 target cells. Type of test: cell-based. The conditions noted are these: for ADCC efficacy: maximum signal:background (S/B). The source says:
The compounds described herein have been characterized in an ADCC reporter assay (see Section 1.2 ADCC reporter for protocol). […] Furthermore, the assay also confirms that this formed complex can engage and activate the Fc receptors on immune cells. Lastly, the assay provides both potency (EC50) and efficacy (signal to background ratio) for each compound in a dose dependant manner.
This assay has four components • 1) Heterobivalent Compound consisting of a targeting ligand and a hapten connected by a linker (ranging from 10 uM-1 pM) • 2) A hapten antibody with functional Fc domain (typical concentrations are 0.01 ug/mL-200 ug/mL) • 3) Target cells—CHOK1 cells engineered to overexpress either CCR1, CCR2, or CCR3, or CEMNKR cells engineered to overexpress CCR5 (typically 1000-20,000 cells per well) • 4) Reporter cells—Jurkat cells engineered to express FcgRIIIa (ADCC reporter assay) and with a reporter gene (luciferase) under the control of the NFAT promoter (typically 3000-75,000 cells per well)
Reagents are combined in final volume of 20 uL in 384-well tissue culture treated plated.
All components are incubated together for ˜12-18 hours. Add BioGlo Detection reagent (from Promega) to lyse the cells and provide substrate for the luciferase reporter protein. Signal is measured on a microplate reader capable of measuring luminescence. Signal:Background is calculated by dividing the signal of a test well by the signal obtained when no compound is included in the assay. EC50 calculations were done using Graphpad Prism Software, specifically a nonlinear regression curve fit (Y=Bottom+(Top−Bottom)/(1+10^((Log EC50−X)*HillSlope)))
For orientation: In a reporter assay the amount or activity of a reporter protein is the signal.

Where [1] appears, read: CHOK1 cells overexpressing CCR2, Jurkat FcgRIIIa NFAT-luciferase reporter cells, EC50 class, read-out: ADCC potency.
[2] abbreviates: CHOK1 cells overexpressing CCR2.
Setting [3] is: CHOK1 cells overexpressing CCR2, Jurkat FcgRIIIa NFAT-luciferase reporter cells, EC50 class.

Like-named read-outs stand apart in the source and are kept apart here. Marks after values point to notes of the source that are not given here. Bounds are passed on as bounds.

Among the data in patent US20190336489A1, “NON PEPTIDE HETEROBIVALENT MOLECULES FOR TREATING INFLAMMATORY DISEASES” (GLAXOSMITHKLINE INTELLECTUAL PROPERTY DEVELOPMENT LIMITED, priority 2017, published 2019) are EC50, ADCC efficacy and ADCC potency values, retold here.

T1 sequence (P41597 whole entry, species assumed): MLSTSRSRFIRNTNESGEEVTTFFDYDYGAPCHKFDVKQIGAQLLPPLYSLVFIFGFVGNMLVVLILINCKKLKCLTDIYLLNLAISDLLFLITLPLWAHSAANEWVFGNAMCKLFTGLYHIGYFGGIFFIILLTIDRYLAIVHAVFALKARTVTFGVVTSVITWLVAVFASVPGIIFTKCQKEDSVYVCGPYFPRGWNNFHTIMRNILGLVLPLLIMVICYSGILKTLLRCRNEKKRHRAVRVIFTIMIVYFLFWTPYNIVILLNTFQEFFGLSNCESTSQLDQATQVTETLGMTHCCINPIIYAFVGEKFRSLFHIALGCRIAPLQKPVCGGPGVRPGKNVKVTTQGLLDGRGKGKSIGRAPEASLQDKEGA

As for `Cc1ccc2c(c1)NC[C@]21CCN(C[C@@H](O)C2CCN(C(=O)c3cc4ccc(Oc5ccc(C(=O)N6CCN(CCCNc7ccc([N+](=O)[O-])cc7[N+](=O)[O-])CC6)cc5)cc4[nH]3)CC2)C[C@H]1C` [Compound 15, (4-((S)-2-((3S,3′S)-3′,6-Dimethylspiro[indoline-3,4′-piperidin]-1′-yl)-1-hydroxyethyl)piperidin-1-yl)(6-(4-(4-(3-((2,4-dinitrophenyl)amino)propyl)piperazine-1-carbonyl)phenoxy)-1H-indol-2-yl)methanone], the EC50 under setting [1] lay in the range of 1 to 10 nM. Besides, under setting [2], the ADCC efficacy entry is given as “+++^e (Maximum Signal:Background > 10 = +++)”.

Turning to `O=C(NCC(=O)N1CC[C@H](NC2CCC(O)(c3ccc(-c4ncccn4)cn3)CC2)C1)c1cc(OCCOCCOCCOCCOCCOCCOCCOCCOCCOCCNc2ccc([N+](=O)[O-])cc2[N+](=O)[O-])cc(C(F)(F)F)c1` (single isomer, unassigned) [Compound 17], under setting [3], the ADCC potency result is on record as “+++ (pEC50 ≥ 9 = +++)”. Under setting [2], the ADCC efficacy result was “+++^e (Maximum Signal:Background > 10 = +++)”.

Turning to `O=C(NCC(=O)N1CC[C@H](NC2CCC(O)(c3ccc(-c4ncccn4)cn3)CC2)C1)c1cc(OCCOCCOCCOCCOCCOCCOCCOCCOCCOCCNc2ccc([N+](=O)[O-])cc2[N+](=O)[O-])cc(C(F)(F)F)c1` (single isomer, unassigned) [Compound 16], the ADCC potency entry under setting [3] was “+++ (pEC50 ≥ 9 = +++)”. Moreover, the ADCC efficacy result under setting [2] was “++^e (>5 = ++)”.

For the compound `Cc1ccc2c(c1)NC[C@]21CCN(C[C@@H](O)C2CCN(C(=O)c3cc4ccc(Oc5ccc(C(=O)NCCOCCOCCOCCOCCOCCOCCOCCOCCOCCNc6ccc([N+](=O)[O-])cc6[N+](=O)[O-])cc5)cc4[nH]3)CC2)C[C@H]1C` [Compound 12, 4-((2-(4-((S)-2-((3S,3′S)-3′,6-Dimethylspiro[indoline-3,4′-piperidin]-1′-yl)-1-hydroxyethyl)piperidine-1-carbonyl)-1H-indol-6-yl)oxy)-N-(29-((2,4-dinitrophenyl)amino)-3,6,9,12,15,18,21,24,27-nonaoxanonacosyl)benzamide], under setting [1], the EC50 is less than 1 nM. Under setting [2], the ADCC efficacy entry is “+++^e (Maximum Signal:Background > 10 = +++)”.

`CC(C)[C@]1(C(=O)N2CCc3nc(CCCCOc4cccc(C(=O)NCCOCCOCCOCCOCCOCCOCCOCCOCCOCCNc5ccc([N+](=O)[O-])cc5[N+](=O)[O-])c4)c(C(F)(F)F)cc3C2)CC[C@@H](NC2CCOCC2)C1` [Compound 7, N-(29-((2,4-dinitrophenyl)amino)-3,6,9,12,15,18,21,24,27-nonaoxanonacosyl)-3-(4-(6-((1S,3R)-1-isopropyl-3-((tetrahydro-2H-pyran-4-yl)amino)cyclopentanecarbonyl)-3-(trifluoromethyl)-5,6,7,8-tetrahydro-1,6-naphthyridin-2-yl)butoxy)benzamide]: the EC50 under setting [1] was less than 1 nM. Moreover, the ADCC efficacy entry under setting [2] is listed as “+++^e (Maximum Signal:Background > 10 = +++)”.

In the case of `Cc1ccc2c(c1)NC[C@]21CCN(C[C@@H](O)C2CCN(C(=O)/C=C/c3cc(F)cc(OCCOCCOCCOCCOCCOCCOCCOCCOCCOCCNc4ccc([N+](=O)[O-])cc4[N+](=O)[O-])c3)CC2)C[C@H]1C` [Compound 9, (E)-1-(4-((S)-2-((3S,3′S)-3′,6-Dimethylspiro[indoline-3,4′-piperidin]-1′-yl)-1-hydroxyethyl)piperidin-1-yl)-3-(3-((29-((2,4-dinitrophenyl)amino)-3,6,9,12,15,18,21,24,27-nonaoxanonacosyl)oxy)-5-fluorophenyl)prop-2-en-1-one], the EC50 under setting [1] was less than 1 nM. Moreover, the ADCC efficacy entry under setting [2] is recorded as “+++^e (Maximum Signal:Background > 10 = +++)”.

`Cc1ccc2c(c1)NC[C@]21CCN(C[C@@H](O)C2CCN(C(=O)c3cc4c(OCCOCCOCCOCCNC(=O)CCC(=O)NCCOCCOCCOCCNc5ccc([N+](=O)[O-])cc5[N+](=O)[O-])cccc4[nH]3)CC2)C[C@H]1C` [Compound 14, N1-(2-(2-(2-(2-((2-(4-((S)-2-((3S,3′S)-3′,6-dimethylspiro[indoline-3,4′-piperidin]-1′-yl)-1-hydroxyethyl)piperidine-1-carbonyl)-1H-indol-4-yl)oxy)ethoxy)ethoxy)ethoxy)ethyl)-N4-(2-(2-(2-(2-((2,4-dinitrophenyl)amino)ethoxy)ethoxy)ethoxy)ethyl)succinamide] had an EC50 of 100 to 1000 nM. Besides, the ADCC efficacy entry under setting [2] was “++^e (>5 = ++)”.

On to `Cc1ccc2c(c1)NC[C@]21CCN(C[C@@H](O)C2CCN(c3ncc(-c4cccc(C(=O)NCCOCCOCCOCCOCCOCCOCCOCCOCCOCCNc5ccc([N+](=O)[O-])cc5[N+](=O)[O-])c4)o3)CC2)C[C@H]1C` [Compound 11, 3-(2-(4-((S)-2-((3S,3′S)-3′,6-Dimethylspiro[indoline-3,4′-piperidin]-1′-yl)-1-hydroxyethyl)piperidin-1-yl)oxazol-5-yl)-N-(29-((2,4-dinitrophenyl)amino)-3,6,9,12,15,18,21,24,27-nonaoxanonacosyl)benzamide], for which, under setting [1], the EC50 is 10 to 100 nM. In addition, the ADCC efficacy entry under setting [2] is listed as “+++^e (Maximum Signal:Background > 10 = +++)”.

Take `Cc1ccc2c(c1)NC[C@]21CCN(C[C@@H](O)C2CCN(C(=O)c3cc4cc(OCCOCCOCCOCCNC(=O)CCC(=O)NCCOCCOCCOCCNc5ccc([N+](=O)[O-])cc5[N+](=O)[O-])ccc4[nH]3)CC2)C[C@H]1C` [Compound 8, N1-(2-(2-(2-(2-((2-(4-((S)-2-((3S,3′S)-3′,6-Dimethylspiro[indoline-3,4′-piperidin]-1′-yl)-1-hydroxyethyl)piperidine-1-carbonyl)-1H-indol-5-yl)oxy)ethoxy)ethoxy)ethoxy)ethyl)-N4-(2-(2-(2-(2-((2,4-dinitrophenyl)amino)ethoxy)ethoxy)ethoxy)ethyl)succinamide]: the EC50 under setting [1] lay in the range of 10 to 100 nM. Under setting [2], the ADCC efficacy result is given as “+++^e (Maximum Signal:Background > 10 = +++)”.

For the compound `Cc1ccc2c(c1)NC[C@]21CCN(C[C@@H](O)C2CCN(C(=O)c3cc4cc(Oc5ccc(C(=O)NCCOCCOCCOCCOCCOCCOCCOCCOCCOCCNc6ccc([N+](=O)[O-])cc6[N+](=O)[O-])cc5)ccc4[nH]3)CC2)C[C@H]1C` [Compound 10, 4-((2-(4-((S)-2-((3S,3′S)-3′,6-Dimethylspiro[indoline-3,4′-piperidin]-1′-yl)-1-hydroxyethyl)piperidine-1-carbonyl)-1H-indol-5-yl)oxy)-N-(29-((2,4-dinitrophenyl)amino)-3,6,9,12,15,18,21,24,27-nonaoxanonacosyl)benzamide], the EC50 under setting [1] is 1 to 10 nM. For the same compound, under setting [2], the ADCC efficacy entry is recorded as “+++^e (Maximum Signal:Background > 10 = +++)”.

Turning to `CC(C)(C)N1CCNC(C(=O)N2CCN(C(=O)Nc3ccc(Cl)c(F)c3)C(CCOC(=O)NCCOCCOCCOCCOCCOCCOCCOCCOCCOCCNc3ccc([N+](=O)[O-])cc3[N+](=O)[O-])C2)C1` (single isomer, unassigned) [Compound 19, 2-(4-(4-(Tert-butyl)piperazine-2-carbonyl)-1-((4-chloro-3-fluorophenyl)carbamoyl)piperazin-2-yl)ethyl (29-((2,4-dinitrophenyl)amino)-3,6,9,12,15,18,21,24,27-nonaoxanonacosyl)carbamate], the EC50 under setting [1] was less than 1 nM. Further, the ADCC efficacy entry under setting [2] is listed as “+++^e (Maximum Signal:Background > 10 = +++)”.

`Cc1ccc2c(c1)NC[C@]21CCN(C[C@@H](O)C2CCN(C(=O)c3cc4ccc(OCCOCCOCCOCCNC(=O)CCC(=O)NCCOCCOCCOCCNc5ccc([N+](=O)[O-])cc5[N+](=O)[O-])cc4[nH]3)CC2)C[C@H]1C` [Compound 13, N1-(2-(2-(2-(2-((2-(4-((S)-2-((3S,3′S)-3′,6-Dimethylspiro[indoline-3,4′-piperidin]-1′-yl)-1-hydroxyethyl)piperidine-1-carbonyl)-1H-indol-6-yl)oxy)ethoxy)ethoxy)ethoxy)ethyl)-N4-(2-(2-(2-(2-((2,4-dinitrophenyl)amino)ethoxy)ethoxy)ethoxy)ethyl)succinamide] came in with an EC50 of 1 to 10 nM. Besides, the ADCC efficacy result under setting [2] is recorded as “+++^e (Maximum Signal:Background > 10 = +++)”.

`CC(C)[C@]1(C(=O)N2CCc3nc(CCCCOc4ccc(C(=O)NCCOCCOCCOCCOCCOCCOCCOCCOCCOCCNc5ccc([N+](=O)[O-])cc5[N+](=O)[O-])cc4)c(C(F)(F)F)cc3C2)CC[C@@H](NC2CCOCC2)C1` [Compound 6, N-(29-((2,4-dinitrophenyl)amino)-3,6,9,12,15,18,21,24,27-nonaoxanonacosyl)-4-(4-(6-((1S,3R)-1-isopropyl-3-((tetrahydro-2H-pyran-4-yl)amino)cyclopentanecarbonyl)-3-(trifluoromethyl)-5,6,7,8-tetrahydro-1,6-naphthyridin-2-yl)butoxy)benzamide]: the EC50 under setting [1] is less than 1 nM. Further, under setting [2], the ADCC efficacy entry was “+++^e (Maximum Signal:Background > 10 = +++)”.
